Measured values: patent US11795511B2, “Methods and compositions for the prognosis and treatment of relapsed leukemia” (NEW YORK UNIVERSITY, priority 2012, dated 2023)

Experiments:
Reh cells [1] = test: Apoptosis assay (Annexin V-PE / 7-AAD, flow cytometry) of Reh cells transduced with wild-type or mutant cN-II after drug treatment; assay type: cell-based; settings: Reh cells transduced with lentiviruses encoding wild-type or mutant (Arg238Trp, Arg367Gln or Ser445Phe) cN-II; incubation 24-72 h
Experimental: Cell Culture and Drug Treatment. Reh cells obtained from the American Type Culture Collection (ATCC) were grown in RPMI1640 supplemented with 10% FBS, 10 mM HEPES and 1% penicillin-streptomycin under 5% CO2 at 37° C. 293T cells (ATCC) were grown in DMEM supplemented with 10% FBS and 1% penicillin-streptomycin under 5% CO2 at 37° C. 6-mercaptopurine, 6-thioguanine, cytarabine, doxorubicin, gemcitabine and prednisolone (Sigma) were serially diluted in RPMI before use at the indicated concentrations.
Transient Transfection and Lentivirus Gene Transfer. NT5C2 DNA for wild-type and mutant (Arg238Trp, Arg367Gln and Ser445Phe) was cloned into the lentiviral vector pLenti using SalI and XbaI restriction sites. All plasmids were sequence verified. cDNA constructs were transfected into 293T cells along with helper plasmids using the calcium phosphate method to produce replication-defective virus. Supernatant was harvested 48 h later and used to transduce Reh cells (whose NT5C2 sequence was verified as wild type) supplemented with […] polybrene (Sigma). Virus-containing medium was replaced 24 h after infection. Cells were monitored 72 h after infection for infection efficiency by the detection of GFP-positive cells using a FACScan (BD). Infected cells were plated (200,000 cells per well in […] of medium) in triplicate for drug treatment with 6-mercaptopurine, 6-thioguanine, cytarabine, doxorubicin, gemcitabine and prednisolone (Sigma). Cells were incubated for 24-72 h and then assayed for apoptosis by Annexin V-PE and 7-AAD staining (Annexin V-PE Apoptosis Detection kit, BD Pharmingen) followed by flow cytometry analysis using a FACScan. The percentages of cells positive and negative for Annexin V and/or 7-AAD staining were analyzed with FlowJo software (version 7.6.1, Tree Star). Data were plotted relative to results obtained with no chemotherapy treatment, and error bars represent the standard deviation from three independent determinations. Cells (1×10^6) were harvested for protein at the time of plating. Briefly, cells were pelleted at 200 g for 5 min and resuspended in […] of RIPA buffer with 1× protease inhibitors (GE Healthcare), incubated on ice for 15 min and centrifuged at 15,000 g for 10 min at 4° C. Protein was subjected to electrophoresis on 9% SDS-Tris acrylamide gels and transferred to PVDF membranes. Membranes were incubated with a 1:5,000 dilution of antibody to Flag (F3165, Sigma), incubated with a 1:10,000 dilution of HRP-conjugated secondary antibody to mouse (GE Healthcare) and developed using ECL (GE Healthcare).

cN-II = cN-II (Homo sapiens, UniProt P49902); settings: cited from earlier work
Reh cells [2] = test: HPLC determination of thioguanine nucleotides in Reh cells after 6-mercaptopurine treatment; assay type: cell-based; settings: 6-mercaptopurine treatment for 24 h
Experimental: HPLC determination of nucleotides. Reh cells were transiently infected with NT5C2 constructs. After infection, cells were treated with 10 mM 6-mercaptopurine for 24 h in duplicate. After 24 h, 5×10^6 cells were washed twice with PBS, and cell pellets were frozen at −80° C. Intraceullar accumulation of thioguanine nucleotides (6-mercaptopurine active metabolites) was determined by a reversed-phase liquid chromatography assay as described previously (Dervieux et al., “HPLC Determination of Thiopurine Nucleosides and Nucleotides In Vivo in Lymphoblasts Following Mercaptopurine Therapy,” Clin. Chem. 48: 61-68 (2002), which is hereby incorporated by reference in its entirety).

Chain of cN-II (P49902 whole entry): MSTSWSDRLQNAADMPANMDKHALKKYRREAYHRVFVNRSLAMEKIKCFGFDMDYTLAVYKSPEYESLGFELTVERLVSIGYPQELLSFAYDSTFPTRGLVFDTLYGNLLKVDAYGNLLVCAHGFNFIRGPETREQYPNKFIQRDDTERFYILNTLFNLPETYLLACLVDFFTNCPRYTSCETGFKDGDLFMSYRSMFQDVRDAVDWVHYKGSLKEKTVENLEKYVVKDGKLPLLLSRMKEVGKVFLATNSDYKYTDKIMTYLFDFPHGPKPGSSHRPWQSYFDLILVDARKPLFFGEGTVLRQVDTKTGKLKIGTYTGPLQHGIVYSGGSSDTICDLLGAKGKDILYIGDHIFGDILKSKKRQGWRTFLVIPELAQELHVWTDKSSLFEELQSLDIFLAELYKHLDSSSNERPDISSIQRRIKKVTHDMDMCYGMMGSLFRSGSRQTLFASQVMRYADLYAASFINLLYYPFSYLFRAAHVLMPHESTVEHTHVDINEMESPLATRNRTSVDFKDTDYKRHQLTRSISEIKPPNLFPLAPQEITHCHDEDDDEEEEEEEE

Compound | resistance to apoptosis of cells expressing mutant forms of cN-II compared to cells expressing wild-type protein (Reh cells [1]) | hydrolysis by the purified enzyme (cN-II) | level of thioguanine nucleotides in cells expressing mutant cN-II compared to control cells expressing wild-type protein or GFP (Reh cells [2])
Nc1ccn([C@@H]2O[C@H](CO)[C@@H](O)[C@@H]2O)c(=O)n1 [cytarabine] | no resistance was seen | – | –
Nc1nc2nc[nH]c2c(=S)[nH]1 [6-thioguanine] | significantly more resistant to apoptosis | – | –
Nc1ccn([C@@H]2O[C@H](COP(=O)(O)O)[C@@H](O)[C@@H]2O)c(=O)n1 [araC monophosphate] | – | does not hydrolyze | –
COc1cccc2c1C(=O)c1c(O)c3c(c(O)c1C2=O)C[C@@](O)(C(=O)CO)C[C@@H]3O[C@H]1C[C@H](N)[C@H](O)[C@H](C)O1 [doxorubicin] | no resistance was seen | – | –
Nc1ccn([C@@H]2O[C@H](CO)[C@@H](O)C2(F)F)c(=O)n1 [gemcitabine] | no resistance was seen | – | –
Sc1ncnc2nc[nH]c12 [6-mercaptopurine] | significantly more resistant to apoptosis | – | reduction in the level of thioguanine nucleotides
C[C@]12C=CC(=O)C=C1CC[C@@H]1[C@@H]2[C@@H](O)C[C@@]2(C)[C@H]1CC[C@]2(O)C(=O)CO [prednisolone] | no resistance was seen | – | –
